PMC6331730 (The EMBO Journal, 2018)

Test system: Purified tubulin with GST-tagged CPAP PN2-3 (pull-down)
Assay: GST-PN2-3 pull-down, semi-quantitative Western blot
Assay type: binding
Conditions: protein-protein interaction inhibition

- IC50: ~441 nM
SMILES: COc1ncc2cc3ccccc3nc2c1C#N [CCB02, 3‐Methoxybenzo[b][1,6]naphthyridine‐4‐carbonitrile]
